# Measured values: the supplement of paper PMC13380429
# ± gives the standard deviation of the averaged measurements.
# Assays:
# Details in all cases: 72 h
# Caco-2 [1] = assay: cell viability relative to DMSO; higher = less toxic
# Calu-3 [2] = assay: as above
# HepG2 [3] = assay: as above
# U2OS [4] = assay: as above
# Vero E6 [5] = assay: as above
# Caco-2 [6] = assay: relative viability EC50 (midpoint between 100% and the lowest measured viability); higher = less toxic
# Calu-3 [7] = assay: as above
# HepG2 [8] = assay: as above
# U2OS [9] = assay: as above
# Vero E6 [10] = assay: as above
# Caco-2 [11] = assay: drug sensitivity score (DSS) for viability; higher = more toxic; extreme values may be limits of the assay
# Calu-3 [12] = assay: as above
# HepG2 [13] = assay: as above
# U2OS [14] = assay: as above
# Vero E6 [15] = assay: as above
Structure (SMILES),cell viability (Caco-2 [1]; 1 nM) [%],cell viability (Caco-2 [1]; 10 nM) [%],cell viability (Caco-2 [1]; 100 nM) [%],cell viability (Caco-2 [1]; 1000 nM) [%],cell viability (Caco-2 [1]; 10000 nM) [%],cell viability (Calu-3 [2]; 1 nM) [%],cell viability (Calu-3 [2]; 10 nM) [%],cell viability (Calu-3 [2]; 100 nM) [%],cell viability (Calu-3 [2]; 1000 nM) [%],cell viability (Calu-3 [2]; 10000 nM) [%],cell viability (HepG2 [3]; 1 nM) [%],cell viability (HepG2 [3]; 10 nM) [%],cell viability (HepG2 [3]; 100 nM) [%],cell viability (HepG2 [3]; 1000 nM) [%],cell viability (HepG2 [3]; 10000 nM) [%],cell viability (U2OS [4]; 1 nM) [%],cell viability (U2OS [4]; 10 nM) [%],cell viability (U2OS [4]; 100 nM) [%],cell viability (U2OS [4]; 1000 nM) [%],cell viability (U2OS [4]; 10000 nM) [%],cell viability (Vero E6 [5]; 1 nM) [%],cell viability (Vero E6 [5]; 10 nM) [%],cell viability (Vero E6 [5]; 100 nM) [%],cell viability (Vero E6 [5]; 1000 nM) [%],cell viability (Vero E6 [5]; 10000 nM) [%],relative viability EC50 (Caco-2 [6]) [µM],relative viability EC50 (Calu-3 [7]) [µM],relative viability EC50 (HepG2 [8]) [µM],relative viability EC50 (U2OS [9]) [µM],relative viability EC50 (Vero E6 [10]) [µM],drug sensitivity score (Caco-2 [11]),drug sensitivity score (Calu-3 [12]),drug sensitivity score (HepG2 [13]),drug sensitivity score (U2OS [14]),drug sensitivity score (Vero E6 [15])
COc1ccc(S(=O)(=O)N2c3ccc(Cl)cc3[C@](O)(c3ccccc3Cl)[C@@H]2C(=O)N2CCC[C@H]2C(N)=O)cc1OC [relcovaptan],102,102,91.6,102,87.5,91.8,100,93.3,108,86.7,108,99.4,108,98.8,94.3,103,105,102,105,99.2,103,99.8,92.4,97.2,97.5,> 10,> 10,> 10,> 10,> 10,0,0,0,0,0
c1ccc2cc(C3=NCCN3)ncc2c1 [BU226],103,108,94.3,97.7,101,112,97.5,97,97.4,91.8,102,95.7,86.1,103,104,105,108,99.7,106,100,96.6,97.1,96.5,94.6,98.7,> 10,> 10,> 10,> 10,> 10,0,0,0,0,0
N[C@@H](Cc1cc(CP(=O)(O)O)cc(-c2ccccc2Cl)c1)C(=O)O [SDZ-220-581],102,91.5,91,101,111,107,92.8,101,98.6,114,96,99.6,92.6,101,104,99.8,99.3,96.8,106,105,95.8,102,92.7,95.9,107,> 10,> 10,> 10,> 10,> 10,0,0,0,0,0
NC[C@H](O)c1ccc(O)c(O)c1 [norepinephrine],88.9,95.9,101,93.2,97.5,101,88.3,93.7,98.6,95.3,102,95.3,96,105,106,99.4,100,98.5,99.8,99.6,99.9,96.7,98.1,95,98.6,> 10,> 10,> 10,> 10,> 10,0,0,0,0,0
CCCCC(CC)CNC(=N)NC(=N)NCCCCCCNC(=N)NC(=N)NCC(CC)CCCC (stereo not given) [alexidine],94.6,99.3,105,101,1.2,97.1,105,104,103,105,106,93.2,105,50.7,6,93.6,91.8,99.3,91,3.9,108,106,93.3,109,32.8,3.22,> 10,0.964,2.39,3.73,5.4,0,11.2,6.8,3.1
C=C[C@@]1(C)CC(=O)[C@]2(O)[C@@]3(C)[C@@H](O)CCC(C)(C)[C@@H]3[C@H](O)[C@H](OC(C)=O)[C@@]2(C)O1 [colforsin],97.9 ± 2.7,99.3 ± 1.3,100 ± 3.5,109 ± 6.7,118 ± 10,106 ± 14,109 ± 11,103 ± 3,106 ± 2.1,97.5 ± 7.2,110 ± 8.1,106 ± 3.4,101 ± 3.2,96.4 ± 4.8,99.2 ± 3.2,101 ± 1.1,101 ± 5,95.9 ± 0.28,100 ± 1.4,96.65 ± 0.64,97.7 ± 6.5,101 ± 14,103 ± 4.5,89.9 ± 3.5,85.7 ± 4.3,> 10,> 10,> 10,> 10,> 10,0,0,0,0,0.4 ± 0.28
Cc1c(-c2cnccn2)ssc1=S [oltipraz],94.2,96,103,106,101,94,94.7,106,96.5,101,93.4,103,94.2,94.7,105,98.3,96.5,101,96.4,104,88.1,95.2,88.7,93,104,> 10,> 10,> 10,> 10,> 10,0,0,0,0,0
O=C(NCCN1CCCCC1)c1ccc(I)cc1 [N-[2-(piperidinylamino)ethyl]-4-iodobenzamide],96.4,99.6,105,92.1,91.2,101,89.4,94.6,92.7,116,103,91.8,103,99.1,91.3,103,97.5,97,91.3,95.5,101,99.6,96.5,99.3,93.4,> 10,> 10,> 10,> 10,> 10,0,0,0,0,0
"O=C(O)c1cc(O)c2c(Cl)cc(Cl)cc2n1 [5,7-dichlorokynurenic-acid]",98.7,98.1,96.1,92.1,96.8,105,99.8,98.8,110,112,96.3,99.3,106,96.5,102,96,98.2,98.2,103,95.7,95.3,96.4,100,98.6,98.3,> 10,> 10,> 10,> 10,> 10,0,0,0,0,0
CS(=O)(=O)c1cc(F)cc2c3c(n(Cc4ccc(Cl)cc4)c12)[C@@H](CC(=O)O)CC3 [laropiprant],95.4,102,91,95.4,88.5,101,95.4,90.3,110,94.6,99,94.2,100,98.6,101,100,101,98.3,106,97.5,102,99.6,106,98.2,91.9,> 10,> 10,> 10,> 10,> 10,0,0,0,0,0
CCCCn1c(=O)c2[nH]c(C34CC5CC(CC3C5)C4)nc2n(CCCO)c1=O [PSB-36],96.5,102,98,101,91.9,99,93.4,98.7,91,80.4,105,95.4,103,99.3,97.3,98.5,98.9,88.6,89.1,86,99.3,93.5,98.1,84.9,100,> 10,> 10,> 10,> 10,> 10,0,1.1,0,1.7,0
